{"source": "patent US6756509B2", "about": "“Method for purifying crude 2,6-naphthalenedicarboxylic acid” (Kobe Steel, Ltd., priority 2001, dated 2004)", "key": {"[1]": {"test": "solubility in alcohol at room temperature"}, "[2]": {"test": "solubility in water at room temperature", "assay_type": "physicochemical", "experimental": "Preferably, the reduction reaction is performed at a temperature in the range of 280 to 350° C. […] In addition, in order to maintain the liquid phase at a high temperature in the range described above, the pressure must be the saturated vapor pressure or higher (150 to 250 atm). Fortunately, using hydrogen dissolved in water prevents the equipment from deteriorating. Specifically, if hydrogen gas is supplied to a water medium containing 2,6-NDA, the hydrogen gas is used at such a high temperature and high pressure, consequently making the reactor brittle. In order to prevent the embrittlement, pressure-resistant equipment, which is expensive, is required."}}}
{"smiles": "O=C(O)c1ccc2ccccc2c1", "note": "[2-NA, 2-naphthoic acid]", "values": [{"measurement": "amount that dissolves in ethanol", "setting": "[1]; ethanol", "value": 10, "unit": "mass %"}]}
{"smiles": "O=C(O)c1ccc2cc(C(=O)O)ccc2c1", "note": "[2,6-NDA, 2,6-naphthalenedicarboxylic acid]", "values": [{"measurement": "solubility in alcohols", "setting": "[1]; any alcohols", "value": "hardly dissolves"}, {"measurement": "solubility in water", "setting": "[2]", "value": "slightly soluble or insoluble"}]}
